Experimental data: patent publication US20190365666A1, “METHODS FOR PREVENTION AND TREATMENT OF CARDIOMETABOLIC SYNDROME AND COMPOSITIONS USED THEREIN” (OmniActive Health Technologies Limited, priority 2015, published 2019)

Assays:
[1] = tested on: BCO2, TNF-α, PPAR-γ, Nrf-2, NFkB, IRS-1, HO-1 in liver tissue; assay: Western blot of liver tissue markers in HFD treated rats; format: in vivo, Sprague Dawley rats; details: P<0.001
[2] = tested on: BCO2, TNF-α, PPAR-γ, Nrf-2, NFkB, IRS-1, HO-1 in liver tissue; assay: as above; format: in vivo, Sprague Dawley rats
Description: (§1) After a one week period of adaptation to laboratory conditions, the animals were randomly divided into four equal groups: 1) Control (n=7): untreated rats were allowed free access to a standard diet; 2) BCX Group, rats were fed a standard diet supplemented with beta-cryptoxanthin (n=7) 2.5 mg/kg; 3) HFD Group (high-fat diet; 42% of calories from fat; n=7): rats were fed a high-fat diet 4) HFD+BCX Group, rats were fed a high-fat diet (42% of calories from fat; n=7) supplemented with beta-cryptoxanthin 2.5 mg/kg. 5% suspension of beta-cryptoxanthin was dissolved in corn oil. At the end of the experiment, all rats were sacrificed by cervical dislocation. Blood samples were taken from rats in the morning upon overnight fasting for biochemical analyses and their visceral fat and liver samples were removed and weighed after sacrificing the animals.
For Western blot analyses protein extraction was performed by homogenizing the liver in 1 ml ice-cold hypotonic buffer A, containing 10 mM2-[4-(2-Hydroxyethyl)-1-piperazinyl] ethanesulfonic acid [HEPES] (pH 7.8), 10 mMKCl, 2 mM MgCl2, 1 mM DTT, 0.1 mM EDTA, and 0.1 mM phenylmethylsulfonyl-fluoride (PMSF). The homogenates were added with 80 μl of 10% Nonidet P-40 (NP-40) solution and then centrifuged at 14,000×g for 2 min. The precipitates were washed once with 500 μl of buffer A plus 40 μl of 10% NP-40, centrifuged, re-suspended in 200 μl of buffer C [50 mM HEPES [pH 7.8], 50 mMKCl, 300 mM NaCl, 0.1 mM EDTA, 1 mM dihiothreitol [DTT], 0.1 mM PMSF, 20% glycerol], and recentrifugedat 14,800×g for 5 min. The supernatants were collected for determinations of NF-KB, VEGF, iNOS, ICAM, Nrf2, and HO-1 according to the method described by Sahin et al. [2012]. Equal amounts of protein (50 μg) were electrophoresed and subsequently transferred onto a nitrocellulose membrane (Schleicher and Schuell Inc., Keene, N.H., USA).
Antibodies against NF-κB, TNF-α, Nrf2, HO-1, PPAR-γ, and p-IRS1, (Abcam (Cambridge, UK) were diluted (1:1000) in the same buffer containing 0.05% Tween-20. Protein loading was controlled sing a monoclonal mouse antibody against β-actin (A5316; Sigma). Bands were analyzed densitometrically using an image analysis system (Image J; National Institute of Health, Bethesda, USA). (FIG. 12)

[3] = tested on: VEGF, Nrf-2, NFkB, iNOS, ICAM-1, HO-1 in retina tissue; assay: Western blot of retina tissue markers in HFD treated rats; format: in vivo, Sprague Dawley rats; details: FIG. 8
[4] = Serum glucose, insulin, leptin, adiponectin and lipid profile in control and HFD rats; format: in vivo, Sprague Dawley rats; details: 2.5 mg/kg daily, 12 weeks
Description: (§2) Male Sprague Dawley rats (7 rats/group, age: 8 week, weight: 180±20 g) were housed in a controlled environment with a 12:12-h light-dark cycle at 22° C. and provided with rat chow and water ad libitum. All experiments were conducted under the National Institutes of Health's Guidelines for the Care and Use of Laboratory Animals and approved by the Ethics Committee of the Veterinary Control Institute. After acclimation for 2 weeks, the rats were divided into four groups: Rats were randomly divided into the following groups: (1) Control, (2) High Fat Diet (HFD) (42% of calories from fat), (3) control+beta-cryptoxanthin (2.5 mg/kg) 4) HFD (42% of calories from fat)+beta-cryptoxanthin (2.5 mg/kg) was administered daily as supplement for 12 weeks.
as §1
Blood was collected by cardiac puncture using an anticoagulant-free vacutainer tube, later centrifuged at 3,000×g for 10 min to obtain serum and kept frozen at −80° C. until it was assayed for biochemical parameters and malondialdehyde (MDA). Serum biochemical parameters were estimated using an automatic analyzer (Samsung LABGEO PT10, Samsung Electronics Co, Suwon, Korea). Repeatability and device/method precision of LABGEO^PT10 was established according to the IVR-PT06 guideline. Serum insulin, leptin and adiponectin levels were measured with the Rat Insulin Kit (Linco Research Inc, St. Charles, Mo., USA) by ELISA (Elx-800; Bio-Tek Instruments Inc, Vermont, USA).

[5] = Oxidative stress markers and antioxidant status (TBARS/MDA, TAC, SOD, CAT, GSHPx) in serum, retina and liver of control and HFD rats; format: in vivo, Sprague Dawley rats; details: 2.5 mg/kg daily, 12 weeks
Description: as §2, §1
The total antioxidant capacity (TAC) was measured using an antioxidant assay kit (Sigma, St Louis, Mo., USA). Trolox was used as an antioxidant standard to calculate Trolox equivalent antioxidant capacity; absorbance readings were taken at 520 nm. Lipid peroxidation was measured in terms of MDA formation, which is the major product of membrane lipid peroxidation done by a previously described method (Karatepe, 2004) with slight modification.
The liver MDA content was measured by high performance liquid chromatography (HPLC, Shimadzu, Tokyo, Japan) using a Shimadzu UV-vis SPD-10 AVP detector and a CTO-10 AS VP column in a mobile phase consisting of 30 mM KH2PO4 and methanol (82.5+17.5, v/v; pH 3.6) at a flow rate of 1.2 ml/min. Column effluents were monitored at 250 nm and the volume was 20 μl. The liver homogenate (10%, w/v) was prepared in 10 mM phosphate buffer (pH 7.4), centrifuged at 13,000×g for 10 min at 4° C., and the supernatant was collected and stored at −80° C. for MDA analysis (Karatepe, 2004). Activities of superoxide dismutase (SOD), catalase (CAT) and glutathione peroxidase (GPx) of homogenized liver were measured using a commercial kit (Cayman Chemical, Ann Arbor, Mich., USA) according to the manufacturer's instructions.

[6] = Body weight, feed intake, visceral fat and liver weight in control and high fat diet rats; format: in vivo, Sprague Dawley rats; details: 2.5 mg/kg daily, 12 weeks
Description: as §2
The experiment was performed using 28 male Sprague-Dawley rats (8 weeks old, weighing 180±20 g), purchased from the Inonu University Laboratory Animal Research Center (Malatya, Turkey). Rats were housed in cages in a temperature and humidity controlled environment, on a 12-hr light and 12-hr dark cycle, designed for the purpose of the study. The temperature inside the rat cages was 21±2° C., relative humidity was 55±5% and consecutive light-dark cycles lasted 12 hours. The protocol of the study was approved by the Animal Experimentation Ethics Committee of Inonu University (Malatya, Turkey). All procedures involving rats were conducted in strict compliance with relevant laws, the Animal Welfare Act, Public Health Services Policy, and guidelines established by the Institutional Animal Care and Use Committee of the Institute. Prior the starting the experiment, animals were assigned to either a regular diet (control; 12% of calories from fat) or a high-fat diet (HFD, 42% of calories from fat). Control or HFD composed according to the American Institute of Nutrition AIN-93 (Reeves et al., 1993) recommendations of casein (20%), soybean oil (7%), wheat starch (53.2%), sucrose (10%), potato starch (5%), 1-cysteine (0.3%), vitamin mix AIN-93M (1%) and mineral mix AIN-93M (3.5%). The high-fat diets (42% calories from fat) were obtained from the basal AIN-93 diet, by replacement of wheat starch with fat (tallow 15% and soybean oil 10%). For induction of obesity (insulin resistance), the rats were fed with HFD for 12 weeks
as §1

[7] = tested on: differentiated 3T3-L1 cells; assay: Real time PCR gene expression (nutrigenomics) study in differentiated 3T3-L1 adipocytes; format: cell-based, murine; details: 12.5 ug/mL, versus DMSO
Description: 3T3L1 murine adipocytes model system was used to understand basic cellular mechanisms associated with diabetes, obesity and related disorders. Nutrigenomics study was carried out to evaluate effect of beta-cryptoxanthin on adipocyte cells, particularly differentiated 3T3-L1 cells, the study was based on real-time polymerase chain reaction (Real time PCR) with dose 12.5 ug/mL. The effect of beta-cryptoxanthin on Adipocyte differentiation and its activity for bio markers PPARG, SCD-1, acetyl Coa carboxylase (ACC), SREBP-1, C/EBPα and FAS were evaluated.
See FIG. 4, where each set of bar graphs for tests with BCX and without BCX (DMSO) correspond from the leftside bar respectively with the heading legend of the factors tested (i.e. for the bar results of BCX, 0.9 for ACC alpha, 0.39 for C/EPB alpha, 0.33 for FAS, 0.7 for PPAR gamma, and 0.38 for SCD-1).

[8] = HFD rats, Western blot, P<0.001
[9] = HFD rats, listed as BC, 2.5 mg/kg
[10] = HFD rats, listed as Beta-cryptoxanthin, 2.5 mg/kg

SMILES: CC1=C(/C=C/C(C)=C/C=C/C(C)=C/C=C/C=C(C)/C=C/C=C(C)/C=C/C2=C(C)C[C@@H](O)CC2(C)C)C(C)(C)CCC1 [BCX, beta-cryptoxanthin]
- enhancement of liver PPAR-α level [1]: 3.53 fold
- BCO2 expression in liver tissue (effect in words) ([2]; FIG. 13): upregulate
- Nrf2 expression in liver tissue (effect in words) ([2]; HFD rats, FIG. 16): decrease
- NFkB in liver tissue (effect in words) ([2]; HFD rats, FIG. 17): decreased
- HO-1 in liver tissue (effect in words) ([2]; HFD rats, FIG. 18): decreased
- IRS-1 in liver (effect in words) ([2]; HFD rats, FIG. 19): increased
- enhancement of liver HO-1 level [2, 8]: 1.41 fold
- enhancement of liver p-IRS1 level [2, 8]: 1.33 fold
- inhibition of liver NFkB expression [2, 8]: 22%
- inhibition of liver TNF-α expression [2, 8]: 14%
- PPAR gamma in liver tissue (effect in words) ([2]; HFD treated rats, FIG. 15): activated
- iNOS in retina tissue (effect in words) [3]: decreased
- Adiponectin ([4]; HFD rats, 2.5 mg/kg): decreased
- Glucose ([4]; HFD rats, 2.5 mg/kg): significantly reduced
- Insulin ([4]; HFD rats, 2.5 mg/kg): significantly reduced
- Leptin ([4]; HFD rats, 2.5 mg/kg): significantly reduced
- Adiponectin ([4]; normal diet rats): 10.8 µg/mL
- FFA ([4]; normal diet rats): 1.12 mM
- Glucose ([4]; normal diet rats): 78.29 mg/dL
- HDL-C ([4]; normal diet rats): 17.00 mg/dL
- Insulin ([4]; normal diet rats): 1.73 ng/mL
- LDL-C ([4]; normal diet rats): 25.00 mg/dL
- Leptin ([4]; normal diet rats): 30.43 ng/mL
- T-C (total cholesterol) ([4]; normal diet rats): 48.6 mg/dL
- TG ([4]; normal diet rats): 20.57 mg/dL
- Liver CAT ([5]; HFD rats, 2.5 mg/kg): increased
- Liver SOD ([5]; HFD rats, 2.5 mg/kg): increased
- Liver TBARS ([5]; HFD rats, 2.5 mg/kg): decreased
- Retinal TBARS ([5]; HFD rats, 2.5 mg/kg): reducing
- Serum TAC ([5]; HFD rats, 2.5 mg/kg): increased
- Serum TBARS ([5]; HFD rats, 2.5 mg/kg): reducing
- Liver CAT [5, 9]: 271.57 U/mg protein
- Liver GSHPx [5, 9]: 17.43 U/mg protein
- Liver SOD [5, 9]: 130.43 U/mg protein
- Liver TBARS [5, 9]: 2.98 nmol/mg protein
- Serum TAC [5, 9]: 0.64 U/mL
- Serum TBARS [5, 9]: 1.64 nmol/mL
- Liver CAT [5, 10]: increased
- Liver GSHPx [5, 10]: increased
- Liver SOD [5, 10]: increased
- Liver TBARS [5, 10]: decreased
- Liver CAT ([5]; normal diet rats): 306.14 U/mg protein
- Liver GSHPx ([5]; normal diet rats): 50.29 U/mg protein
- Liver SOD ([5]; normal diet rats): 198.57 U/mg protein
- Liver TBARS ([5]; normal diet rats): 1.56 nmol/mg protein
- Serum TAC ([5]; normal diet rats): 1.19 U/mL
- Serum TBARS ([5]; normal diet rats): 0.67 nmol/mL
- Feed intake ([6]; HFD rats): 16.87 g/day
- Final BW ([6]; HFD rats, 2.5 mg/kg): decrease
- Liver (weight) ([6]; HFD rats, 2.5 mg/kg): decreased
- Visceral fat ([6]; HFD rats, 2.5 mg/kg): decreased
- Final BW [6, 9]: 325.43 g
- Liver (weight) [6, 9]: 18.46 g
- Visceral fat [6, 9]: 14.93 g
- Final BW [6, 10]: significantly reduced
- Visceral fat [6, 10]: a tendency towards a decrease
- Feed intake ([6]; normal diet rats): 23.88 g/day
- Final BW ([6]; normal diet rats): 290.29 g
- Liver (weight) ([6]; normal diet rats): 12.74 g
- Visceral fat ([6]; normal diet rats): 7.75 g
- ACC alpha expression (FIG. 4 bar result) [7]: 0.9
- PPAR gamma expression (FIG. 4 bar result) [7]: 0.7
